Data from patent publication US8859541B2, “6-alkynylpyridines” (Boehringer Ingelheim International GmbH, priority 2012, dated 2014).

Target: T1, XIAP BIR3 (Homo sapiens, UniProt P98170)
T1 construct: covering amino acids 241 to 356; XIAP BIR3; made in house; host or cells: E. coli
Assay: XIAP BIR3 binding assay (DELFIA), displacement of SMAC peptide
Settings: GST-fusion BIR3 domain (aa 241 to 356) 10 nM, SMAC peptide 10 nM; activity of the (S)-isomers
Description: Biological Methods XIAP BIR3 and cIAP1 BIR3 Binding Assays (DELFIA)
Peptide […]-Lys(Biotin), representing the N-terminus of mature human SMAC (SMAC peptide), was used as interaction partner in the protein-peptide interaction assay.
BIR3 domains (10 nM) were incubated with SMAC peptide (10 nM) in Assay Buffer (50 mM Tris, 120 mM NaCl, 0.1% BSA, 1 mM DTT, 0.05% TritonX100) for one hour at room temperature in the presence of inhibitiory compounds. The assay mixture was transferred to a strepatvidin coated plate and incubated for one hour at room temperature to allow binding of the biotinylated peptide and associated BIR3 domains to the plate. After several washing steps Eu labeled anti-GST antibody (e.g. Perkin Elmer DELFIA Eu-N1-antiGST AD0250) was added to detect BIR3 domain-SMAC peptide interactions according to Perkin Elmer's instructions. […] Time resolved Europium fluoresecence was measured in a Wallac Victor using Standard assay settings.
DELFIA assay results were plotted against compound concentrations and Software GraphPad Prizm was used to calculate half maximal inhibitory concentrations (IC50 values).

T1 sequence (P98170 241-356): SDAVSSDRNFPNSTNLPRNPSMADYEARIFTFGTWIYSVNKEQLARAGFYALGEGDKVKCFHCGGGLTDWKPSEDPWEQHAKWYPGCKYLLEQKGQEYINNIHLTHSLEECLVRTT

SMILES	IC50 [µM]
CNC(C)C(=O)Nc1ccc(-c2c(C)cncc2C)c(C#Cc2ccc3ncccc3c2)n1 (centres unmarked) [Example 1, N-[5-(3,5-dimethylpyridin-4-yl)-6-(2-quinolin-6-ylethynyl)pyridin-2-yl]-2-(methylamino)propanamide]	0.287
CNC(C)C(=O)Nc1ccc(-c2cncnc2)c(C#Cc2ccc3c(c2)OCCCO3)n1 (centres unmarked) [Example 2, N-(6-[2-(3,4-dihydro-2H-1,5-benzodioxepin-7-yl)ethynyl]-5-pyrimidin-5-ylpyridin-2-yl]-2-(methylamino)propanamide]	0.259
CNC(C)C(=O)Nc1ccc(-c2cncc3ccccc23)c(C#Cc2ccc(OC)cc2)n1 (centres unmarked) [Example 3, N-[5-isoquinolin-4-yl-6-[2-(4-methoxyphenyl)ethynyl]-pyridin-2-yl]-2-(methyl-amino)propanamide]	1.15
CNC(C)C(=O)Nc1ccc(-c2cncc3ccccc23)c(C#Cc2ccc(F)cc2)n1 (centres unmarked) [Example 4, N-[6-[2-(4-fluorophenyl)-ethynyl]-5-isoquinolin-4-ylpyridin-2-yl]-2-(methyl-amino)propanamide]	0.643
CNC(C)C(=O)Nc1ccc(-c2cncc3ccccc23)c(C#Cc2ccc3c(c2)OCC(=O)N3)n1 (centres unmarked) [Example 5, N-[5-isoquinolin-4-yl-6-[2-(3-oxo-4H-1,4-benzoxazin-7-yl)-ethynyl]pyridin-2-yl]-2-(methylamino)propanamide]	0.509
CNC(C)C(=O)Nc1ccc(-c2cncnc2C)c(C#Cc2ccc(C)c(C)c2)n1 (centres unmarked) [Example 6, N-[6-[2-(3,4-dimethylphenyl)-ethynyl]-5-(4-methylpyrimidin-5-yl)pyridin-2-yl]-2-(methylamino)propan-amide]	0.214
CNC(C)C(=O)Nc1ccc(-c2cncnc2)c(C#Cc2ccc3[nH]c(C)nc3c2)n1 (centres unmarked) [Example 7, 2-(methylamino)-N-[6-[2-(2-methyl-1H-benzimidazol-5-yl)ethynyl]-5-pyrimidin-5-ylpyridin-2-yl]propanamide]	0.46
CNC(C)C(=O)Nc1ccc(-c2cncnc2)c(C#Cc2ccc(-c3ccccn3)s2)n1 (centres unmarked) [Example 8, 2-(methylamino)-N-[6-[2-(5-pyridin-2-ylthiophen-2-yl)-ethynyl]-5-pyrimidin-5-ylpyridin-2-yl]propanamide]	0.351
CNC(C)C(=O)Nc1ccc(-c2cncnc2)c(C#Cc2ccc3ccccc3n2)n1 (centres unmarked) [Example 9, 2-(methylamino)-N-[5-pyrimidin-5-yl-6-(2-quinolin-2-ylethynyl)pyridin-2-yl]-propanamide]	1.01
CNC(C)C(=O)Nc1ccc(-c2cncnc2)c(C#Cc2ccc3[nH]cnc3c2)n1 (centres unmarked) [Example 10, N-[6-[2-(1H-benzimidazol-5-yl)ethynyl]-5-pyrimidin-5-ylpyridin-2-yl]-2-(methyl-amino)propanamide]	0.787
CNC(C)C(=O)Nc1ccc(-c2cncnc2)c(C#Cc2ccc3c(c2)C(=O)CCO3)n1 (centres unmarked) [Example 11, 2-(methylamino)-N-[6-[2-(4-oxo-2,3-dihydrochromen-6-yl)ethynyl]-5-pyrimidin-5-ylpyridin-2-yl]propanamide]	1.21
CNC(C)C(=O)Nc1ccc(-c2cncnc2)c(C#Cc2ccc(OC)c(C#N)c2)n1 (centres unmarked) [Example 12, N-[6-[2-(3-cyano-4-methoxyphenyl)ethynyl]-5-pyrimidin-5-ylpyridin-2-yl]-2-(methylamino)propanamide]	1.43
CNC(C)C(=O)Nc1ccc(-c2cncnc2)c(C#Cc2ccc3c(c2)OCCO3)n1 (centres unmarked) [Example 14, N-[6-[2-(2,3-dihydro-1,4-benzodioxin-6-yl)ethynyl]-5-pyrimidin-5-ylpyridin-2-yl]-2-(methylamino)propanamide]	0.417

Other lines, results leading:

IC50 [µM]	SMILES
0.711	CNC(C)C(=O)Nc1ccc(-c2cncnc2)c(C#Cc2ccc3scnc3c2)n1 (centres unmarked) [Example 15, N-[6-[2-(1,3-benzothiazol-5-yl)ethynyl]-5-pyrimidin-5-ylpyridin-2-yl]-2-(methyl-amino)propanamide]
0.554	CNC(C)C(=O)Nc1ccc(-c2cncc3ccccc23)c(C#Cc2ccc3occc3c2)n1 (centres unmarked) [Example 16, N-[6-[2-(1-benzofuran-5-yl)-ethynyl]-5-isoquinolin-4-ylpyridin-2-yl]-2-(methyl-amino)propanamide]
0.122	CNC(C)C(=O)Nc1ccc(-c2cncnc2)c(C#Cc2cc(F)cc(Cl)c2)n1 (centres unmarked) [Example 17, N-[6-[2-(3-chloro-5-fluorophenyl)ethynyl]-5-pyrimidin-5-ylpyridin-2-yl]-2-(methylamino)propanamide]
0.745	CNC(C)C(=O)Nc1ccc(-c2cncnc2)c(C#Cc2ccc3ccncc3c2)n1 (centres unmarked) [Example 18, N-[6-(2-isoquinolin-7-yl-ethynyl)-5-pyrimidin-5-ylpyridin-2-yl]-2-(methyl-amino)propanamide]
0.867	CNC(C)C(=O)Nc1ccc(-c2cncnc2)c(C#Cc2ccc3ncccc3c2)n1 (centres unmarked) [Example 19, 2-(methylamino)-N-[5-pyrimidin-5-yl-6-(2-quinolin-6-ylethynyl)pyridin-2-yl]-propanamide]
4.28	CNC(C)C(=O)Nc1ccc(-c2cncnc2)c(C#Cc2ccc3oc4ccccc4c3c2)n1 (centres unmarked) [Example 20, N-[6-(2-dibenzofuran-2-yl-ethynyl)-5-pyrimidin-5-ylpyridin-2-yl]-2-(methyl-amino)propanamide]
0.54	CNC(C)C(=O)Nc1ccc(-c2c(C)ccc3c2cnn3C)c(C#Cc2ccc3ncccc3c2)n1 (centres unmarked) [Example 21, N-[5-(1,5-dimethylindazol-4-yl)-6-(2-quinolin-6-ylethynyl)-pyridin-2-yl]-2-(methyl-amino)propanamide]
1.3	CNC(C)C(=O)Nc1ccc(-c2cccc3ccncc23)c(C#Cc2ccc3ncccc3c2)n1 (centres unmarked) [Example 22, N-[5-isoquinolin-8-yl-6-(2-quinolin-6-ylethynyl)pyridin-2-yl]-2-(methylamino)propan-amide]
0.265	CNC(C)C(=O)Nc1ccc(-c2cncnc2)c(C#Cc2ccc3ccccc3c2)n1 (centres unmarked) [Example 23, 2-(methylamino)-N-[6-(2-naphthalen-2-ylethynyl)-5-pyrimidin-5-ylpyridin-2-yl]-propanamide]
0.698	CNC(C)C(=O)Nc1ccc(-c2c(C)ccc3ncccc23)c(C#Cc2ccc3ncccc3c2)n1 (centres unmarked) [Example 24, 2-(methylamino)-N-[5-(6-methylquinolin-5-yl)-6-(2-quinolin-6-ylethynyl)pyridin-2-yl]propanamide]
0.653	CNC(C)C(=O)Nc1ccc(-c2cncnc2C)c(C#Cc2ccc3cncnc3c2)n1 (centres unmarked) [Example 25, 2-(methylamino)-N-[5-(4-methylpyrimidin-5-yl)-6-(2-quinazolin-7-ylethynyl)-pyridin-2-yl]propanamide]
0.228	CNC(C)C(=O)Nc1ccc(-c2c(C)nc3ccccn23)c(C#Cc2ccc3c(=O)n(C)ccc3c2)n1 (centres unmarked) [Example 32, 2-(methylamino)-N-[5-(2-methylimidazo[1,2-a]pyridin-3-yl)-6-[2-(2-methyl-1-oxoisoquinolin-6-yl)ethynyl]-pyridin-2-yl]propanamide]
0.142	CNC(C)C(=O)Nc1ccc(-c2c(C)nc3ccccn23)c(C#Cc2ccc(C#N)c(C)c2)n1 (centres unmarked) [Example 38, N-[6-[2-(4-cyano-3-methyl-phenyl)ethynyl]-5-(2-methyl-imidazo[1,2-a]pyridin-3-yl)-pyridin-2-yl]-2-(methylamino)-propanamide]
